According to patent US8895585B2, “Nicotinamide derivative or salt thereof” (FUJIFILM Corporation, priority 2010, dated 2014):

Experiments:
THP-1 cells = assay: TNFα generation assay; assay type: cell-based, human; conditions: Homo sapiens, THP-1, THP-1 cells; Table 22; read-out: IC50 in TNFα generation assay
Outline: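 Secreted TNFα in supernatant quantified by ELISA or AlphaLISA after 7 h culture on human IgG-coated wells (10 μg/ml coating). Cells were IFN-γ-differentiated THP-1 (10 ng/ml, 2 days), exposed to compound for 30 min at room temperature before plating.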

[1] = target: T1, glutathione S-transferase (GST)-fused full-length human Syk protein (Homo sapiens, UniProt P43405); assay: Syk enzyme assay; assay type: biochemical; conditions: Syk enzyme assay, Test Example 1; read-out: IC50 of Syk-inhibitory activity
T1 construct: (GST)-fused full-length human Syk protein; GST (glutathione S-transferase); purchased Carna Biosciences
Outline: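 GST-tagged full-length human Syk (baculovirus) preincubated with compound 15 min at room temperature (pH 7.0, 10 mM MgCl2), then reacted 40 min with 0.4 μM biotinylated peptide substrate and 27 μM ATP (final). Phosphorylation read by HTRF (615/665 nm) after EDTA stop; IC50 reported.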

SMILES | IC50 (THP-1 cells) [nM] | IC50 [1] [nM]
CCn1ncc2c(Nc3nc(N[C@H](CC4CC4)[C@H](C)N)c(F)cc3C(N)=O)cccc21 [Example 006-508, 6-(((2R,3S)-3-amino-1-cyclopropylbutan-2-yl)amino)-2-((1-ethyl-1H-indazol-4-yl)amino)-5-fluoronicotinamide] | 65 to 130 | < 10
CC(C)C[C@H](CN)Nc1nc(Nc2cccc3ncccc23)c(C(N)=O)cc1F [Example 006-229, (R)-6-((1-amino-4-methylpentan-2-yl)amino)-5-fluoro-2-((quinolin-5-yl)amino)nicotinamide] | 65 to 130 | < 10
C[C@H](N)[C@@H](C)Nc1nc(Nc2cccc(-n3ccnn3)c2)c(C(N)=O)cc1F (racemic) [Example 006-121, 2-((3-(1H-1,2,3-triazol-1-yl)phenyl)amino)-6-(((2R,3S)-3-aminobutan-2-yl)amino)-5-fluoronicotinamide 2-((3-(1H-1,2,3-triazol-1-yl)phenyl)amino)-6-(((2S,3R)-3-aminobutan-2-yl)amino)-5-fluoronicotinamide] | 130 to 200 | < 10
CC[C@@H](Nc1nc(Nc2cccc3cccnc23)c(C(N)=O)cc1F)[C@H](C)N [Example 006-258, 6-(((2S,3R)-2-aminopentan-3-yl)amino)-5-fluoro-2-((quinolin-8-yl)amino)nicotinamide] | 130 to 200 | 50 to 100
NC(=O)c1cc(F)c(NC2CCCCC2N)nc1Nc1cnnc(-c2ccccc2)c1 (centres unmarked) [Example 002-169] | 130 to 200 | 10 to 50
CC(C)C[C@@H](Nc1nc(Nc2ccc3c(c2)c(C2CC2)nn3C)c(C(N)=O)cc1F)[C@H](C)N [Example 006-546, 6-(((2S,3R)-2-amino-5-methylhexan-3-yl)amino)-2-((3-cyclopropyl-1-methyl-1H-indazol-5-yl)amino)-5-fluoronicotinamide] | 130 to 200 | < 10
CCc1nn(C)c2ccc(Nc3nc(N[C@@H]4CCCC[C@@H]4N)c(F)cc3C(N)=O)cc12 [Example 006-451, 6-(((1R,2S)-2-aminocyclohexyl)amino)-2-((3-ethyl-1-methyl-1H-indazol-5-yl)amino)-5-fluoronicotinamide] | < 65 | < 10
CCC[C@@H](Nc1nc(Nc2cnc3ccc(OC)cc3c2)c(C(N)=O)cc1F)[C@H](C)N [Example 006-242, 6-(((2S,3R)-2-aminohexan-3-yl)amino)-5-fluoro-2-((6-methoxyquinolin-3-yl)amino)nicotinamide] | 65 to 130 | < 10
NC(=O)c1cc(F)c(NC2CCCCC2N)nc1Nc1ccnc(-c2ccoc2)c1 (centres unmarked) [Example 002-057] | 65 to 130 | < 10
NC(=O)c1cc(F)c(NC2CCCCC2N)nc1Nc1cccc2nn(CC3CC3)cc12 (centres unmarked) [Example 002-032] | 130 to 200 | < 10
COc1ccc(-c2cncc(Nc3nc(NC4CCCCC4N)c(F)cc3C(N)=O)c2)cc1OC (centres unmarked) [Example 002-170] | 65 to 130 | 10 to 50
CCC[C@@H](Nc1nc(Nc2ccc3nc(C)cnc3c2)c(C(N)=O)cc1F)[C@H](C)N [Example 006-245, 6-(((2S,3R)-2-aminohexan-3-yl)amino)-5-fluoro-2-((2-methylquinoxalin-6-yl)amino)nicotinamide] | 65 to 130 | < 10
C[C@H](N)[C@@H](C)Nc1nc(Nc2ccc3c(cnn3C)c2)c(C(N)=O)cc1F (racemic) [Example 006-109, 6-(((2R,3S)-3-aminobutan-2-yl)amino)-5-fluoro-2-((1-methyl-1H-indazol-5-yl)amino)nicotinamide 6-(((2S,3R)-3-aminobutan-2-yl)amino)-5-fluoro-2-((1-methyl-1H-indazol-5-yl)amino)nicotinamide] | 65 to 130 | < 10
NC(=O)c1cc(F)c(NC2CCCCC2N)nc1Nc1cncc(-c2ccc3cnccc3c2)c1 (centres unmarked) [Example 002-190] | 130 to 200 | < 10
NC(=O)c1cc(F)c(N[C@@H]2CCCC[C@@H]2N)nc1Nc1cnc2c(ccn2CCN2CCCC2)c1 [Example 004-022] | 65 to 130 | 10 to 50
NC(=O)c1cc(F)c(N[C@@H]2CCCC[C@@H]2N)nc1Nc1cnc2c(ccn2CCN2CCOCC2)c1 [Example 004-024] | 130 to 200 | 50 to 100
NC(=O)c1cc(F)c(N[C@@H]2CCCC[C@@H]2N)nc1Nc1cncc(-c2ccccc2)c1 [Example 006-113, 6-(((1R,2S)-2-aminocyclohexyl)amino)-5-fluoro-2-((5-phenylpyridin-3-yl)amino)nicotinamide] | < 65 | < 10
CCCC[C@@H](Nc1nc(Nc2ccc3c(cnn3C)c2)c(C(N)=O)cc1F)[C@H](C)N [Example 006-387, 6-(((2S,3R)-2-aminoheptane-3-yl)amino)-5-fluoro-2-((1-methyl-1H-indazol-5-yl)amino)nicotinamide] | 65 to 130 | < 10
CCCC[C@@H](Nc1nc(Nc2ccc3c(cnn3CC)c2)c(C(N)=O)cc1F)[C@H](C)N [Example 006-388, 6-(((2S,3R)-2-aminoheptane-3-yl)amino)-2-((1-ethyl-1H-indazol-5-yl)amino)-5-fluoronicotinamide] | 65 to 130 | < 10
CCOc1ncc(Nc2nc(N[C@@H]3CCCC[C@@H]3N)c(F)cc2C(N)=O)cc1F [Example 006-572, 6-(((1R,2S)-2-aminocyclohexyl)amino)-2-((6-ethoxy-5-fluoropyridin-3-yl)amino)-5-fluoronicotinamide] | 130 to 200 | 10 to 50
C[C@@H](Nc1nc(Nc2ccc3ncccc3c2)c(C(N)=O)cc1F)C(N)=O [Example 012-036, (R)-6-((1-amino-1-oxopropan-2-yl)amino)-5-fluoro-2-((quinolin-6-yl)amino)nicotinamide] | 65 to 130 | 10 to 50
C[C@H](N)[C@@H](C)Nc1nc(Nc2ccc3cccnc3c2)c(C(N)=O)cc1F (racemic) [Example 006-182, 6-(((2R,3S)-3-aminobutan-2-yl)amino)-5-fluoro-2-((quinolin-7-yl)amino)nicotinamide 6-(((2S,3R)-3-aminobutan-2-yl)amino)-5-fluoro-2-((quinolin-7-yl)amino)nicotinamide] | 130 to 200 | < 10
COc1nn(C)c2ccc(Nc3nc(N[C@H](CC4CC4)[C@H](C)N)c(F)cc3C(N)=O)cc12 [Example 006-586, 6-(((2R,3S)-3-amino-1-cyclopropylbutan-2-yl)amino)-5-fluoro-2-((3-methoxy-1-methyl-1H-indazol-5-yl)amino)nicotinamide] | 65 to 130 | < 10
COCc1cc(Nc2nc(N[C@@H]3CCCC[C@@H]3N)c(F)cc2C(N)=O)ccn1 (relative stereo) [Example 004-191, 6-(cis-2-aminocyclohexylamino)-5-fluoro-2-((2-(methoxymethyl)pyridin-4-yl)amino)nicotinamide] | 65 to 130 | 10 to 50
CCOc1ncc(Nc2nc(N[C@@H]3CCCC[C@@H]3N)c(F)cc2C(N)=O)cc1-n1cccn1 [Example 006-494, 6-(((1R,2S)-2-aminocyclohexyl)amino)-2-((6-ethoxy-5-(1H-pyrazol-1-yl)pyridin-3-yl)amino)-5-fluoronicotinamide] | 130 to 200 | 10 to 50
